# Source: patent US5256682A, “Isoxazolylimidazole derivatives, process for their production and their use in pharmaceutical agents” (Schering Aktiengesellschaft, priority 1991, dated 1993)
# Test: Metabolic stability: % of test substance remaining after incubation with mouse liver homogenate
# Type: in vitro ADME
# Details: amount not catabolized, in % of the zero value; 120 minutes, 37° C., pH 7.3; NMRI mouse liver homogenate; HPLC; read-out: % Radical after incubation with mouse liver homogenate
# Procedure: The stability of the compounds was measured as follows:
# The test substance (1 μg/50 μl of ethanol) was adjusted with 750 μl of Krebs-Henseleit-Ringer phosphate buffer to pH 7.3 and brought together with 750 μl of a liver homogenate at room temperature and mixed. 250 μl of this batch was removed for zero-point determination and the batch was incubated at 37° C. with continuous movement in a water bath. Aliquot parts of 250 μl are removed after 120 minutes, extracted with 3 ml of diethyl ether after 5 minutes of shaking, then centrifuged for 10 minutes under cooling, frozen, the ether is decanted and dried in a dry nitrogen stream. The residue is dissolved in each case in 200 μl of ethanol and the solution is analyzed with HPLC. The liver used was obtained from NMRI mice and homogenized after removal immediate in 4 parts of a 0.25 molar sucrose solution in a Potter-Elvehjem mixer. The homogenate was then filtered through linen and diluted with the same sucrose solution to 1:10 (weight: volume). Aliquot parts of the solution were stored at -18° C.
row,remaining at 2 h [%],Structure (SMILES)
1,95,"CCc1cc(-c2ncn(-c3cccc(Oc4ccccc4)c3)c2C)on1 [B, 4-(3-Ethyl-isoxazol-5-yl)-5-methyl-1-(3-phenoxyphenyl)imidazole]"
2,31,"CCc1nc(-c2ncn(-c3cccc(Oc4ccccc4)c3)c2C)no1 [A, 4-(5-ethyl-1,2,4-oxadiazol-3-yl)-5-methyl-1-(3-phenoxy-phenyl)-imidazole, reference compound]"
3,100,"COCc1cc(-c2ncn(-c3cccc(Oc4ccccc4)c3)c2C)on1 [D, 4-(3-Methoxymethyl-isoxazol-5-yl)-5-methyl-1-(3-phenoxyphenyl)-imidazole]"

row,Structure (SMILES),remaining at 2 h [%]
1,"CCc1cc(-c2ncn(-c3cccc(Oc4ccccc4)c3)c2C)no1 [C, 4-(5-Ethyl-isoxazol-3-yl)-5-methyl-1-(3-phenoxyphenyl)imidazole]",71
